These results are taken from US5464836A, “Benzophenones having an antifungal activity” (Ministero dell'Universita` e della Ricerca Scientifica e …, priority 1991, dated 1995).

The subject of the assay is Helminthosporium teres. The assay is described as follows: preventive fungicidal activity on Helminthosporium teres (barley leaves). Type of assay: in vivo. The following applies: barley leaves cv. Arna, 12 days, scale 100 (healthy plant) to 0 (completely infected plant). The method, then:
Determination of the preventive fungicidal activity on Helminthosporium teres. Barley leaves cv. Arna, cultivated in a vase in a conditioned environment, were treated by spraying both sides with the products being tested (compounds 1 and 2) in a 20% hydroacetonic solution of acetone (vol./vol.). After remaining 2 days in the conditioned environment at 20° C. and 70% R.H., the plants were sprayed on both sides of the leaves with an aqueous suspension of Helminthosporium teres (250.000 conidii per cc.). After 24 hours in a humidity saturated atmosphere, at 21° C., the plants were kept in a conditioned environment for the incubation of the fungus. At the end of this period (12 days), the gravity of infection was estimated by observation, with a scale of indexes ranging from 100 (healthy plant) to 0 (completely infected plant).

For `CC(Cc1cccc(C(=O)c2ccccc2)c1)CN1C[C@@H](C)O[C@@H](C)C1` (stereo partly shown) [Compound 1, 4-[3-(3-benzoylphenyl)-2-methylpropyl]-2,6-dimethylmorpholine], the “% Control Helminthosporium” value was 100% (dosage 125 ppm) and 100% (dosage 500 ppm).

As for `CC(Cc1cccc(C(=O)c2ccc(Cl)cc2)c1)CN1C[C@@H](C)O[C@@H](C)C1` (stereo partly shown) [Compound 2, 4-[3-(3-(4-chlorobenzoyl)phenyl)-2-methylpropyl]-2,6-dimethylmorpholine], the “% Control Helminthosporium” value runs as follows: (dosage 125 ppm) 100%; (dosage 500 ppm) 100%.
